What was measured:
Experiment in all cases: relative viability (nuclei count vs DMSO), 5 days (fraction); higher = more cells survive
[1] = system: 201T
How it was run: (§1)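 Five library-drug doses in √10 steps were combined with a fixed anchor-drug dose, or a single drug was given alone, by pin tool to lung cancer cell lines in 1536-well plates the day after seeding. Nuclei were stained and counted after 5 days. Relative viability is the nuclei count in treated wells over that in vehicle wells, taken as the median of duplicate plates.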

[2] = system: COR-L23
How it was run: as §1

[3] = system: NCI-H441
How it was run: as §1

[4] = system: COR-L 105
How it was run: as §1

[5] = system: RERF-LC-KJ
How it was run: as §1

[6] = system: HCC-827
How it was run: as §1

[7] = system: NCI-H1915
How it was run: as §1

[8] = system: LK-2
How it was run: as §1

[9] = system: PC-3 [JPC-3]
How it was run: as §1

[10] = system: NCI-H1648
How it was run: as §1

[11] = system: LU99A
How it was run: as §1

[12] = system: NCI-H1734
How it was run: as §1

[13] = system: HCC-366
How it was run: as §1

[14] = system: NCI-H1650
How it was run: as §1

[15] = system: NCI-H661
How it was run: as §1

[16] = system: BEN
How it was run: as §1

[17] = system: NCI-H1755
How it was run: as §1

[18] = system: LC-2-ad
How it was run: as §1

[19] = system: NCI-H2347
How it was run: as §1

[20] = system: HCC-15
How it was run: as §1

[21] = system: NCI-H1944
How it was run: as §1

[22] = system: HCC-78
How it was run: as §1

[23] = system: SW 900
How it was run: as §1

[24] = system: EKVX
How it was run: as §1

`Oc1nc(-c2ccc(C(F)(F)F)cc2)nc2c1CSCC2` [XAV939] + CC(=O)c1c(C)c2cnc(Nc3ccc(N4CCNCC4)cn3)nc2n(C2CCCC2)c1=O [Palbociclib] (partner 0.5 µM) was tested, and the relative viability ([1]; first compound 0.08 µM) was 0.362, the relative viability ([1]; first compound 0.253 µM) was 0.315 and the relative viability ([1]; first compound 0.8 µM) was 0.338. It also gave a relative viability ([1]; first compound 2.53 µM) of 0.3, a relative viability ([2]; first compound 0.08 µM) of 0.291 and a relative viability ([2]; first compound 0.253 µM) of 0.261. For the same compound, the relative viability ([2]; first compound 0.8 µM) was 0.237, the relative viability ([2]; first compound 2.53 µM) was 0.249 and the relative viability ([3]; first compound 0.08 µM) was 0.222. For the same compound, the relative viability ([3]; first compound 0.253 µM) was 0.189, the relative viability ([3]; first compound 0.8 µM) was 0.182 and the relative viability ([3]; first compound 2.53 µM) was 0.189. For the same compound, the relative viability ([4]; first compound 0.08 µM) was 0.403, the relative viability ([4]; first compound 0.253 µM) was 0.399 and the relative viability ([4]; first compound 0.8 µM) was 0.43. It also gave a relative viability ([4]; first compound 2.53 µM) of 0.397, a relative viability ([5]; first compound 0.08 µM) of 1.13 and a relative viability ([5]; first compound 0.253 µM) of 0.828. It also gave a relative viability ([5]; first compound 0.8 µM) of 1.02, a relative viability ([5]; first compound 2.53 µM) of 0.761 and a relative viability ([6]; first compound 0.08 µM) of 0.571. It also gave a relative viability ([6]; first compound 0.253 µM) of 0.459, a relative viability ([6]; first compound 0.8 µM) of 0.584 and a relative viability ([6]; first compound 2.53 µM) of 0.517. For the same compound, the relative viability ([7]; first compound 0.08 µM) was 0.592, the relative viability ([7]; first compound 0.253 µM) was 0.54 and the relative viability ([7]; first compound 0.8 µM) was 0.567. It also gave a relative viability ([7]; first compound 2.53 µM) of 0.511, a relative viability ([8]; first compound 0.08 µM) of 0.526 and a relative viability ([8]; first compound 0.253 µM) of 0.626. The relative viability ([8]; first compound 0.8 µM) was 0.609, the relative viability ([8]; first compound 2.53 µM) was 0.545 and the relative viability ([9]; first compound 0.253 µM) was 0.5. It also gave a relative viability ([9]; first compound 0.8 µM) of 0.523, a relative viability ([9]; first compound 2.53 µM) of 0.485 and a relative viability ([10]; first compound 0.253 µM) of 0.28. For the same compound, the relative viability ([10]; first compound 0.8 µM) was 0.27, the relative viability ([10]; first compound 2.53 µM) was 0.216 and the relative viability ([11]; first compound 0.08 µM) was 0.477. The relative viability ([11]; first compound 0.253 µM) was 0.406, the relative viability ([11]; first compound 0.8 µM) was 0.433 and the relative viability ([11]; first compound 2.53 µM) was 0.424. It also gave a relative viability ([12]; first compound 0.08 µM) of 0.346, a relative viability ([12]; first compound 0.253 µM) of 0.3 and a relative viability ([12]; first compound 0.8 µM) of 0.321. For the same compound, the relative viability ([12]; first compound 2.53 µM) was 0.357, the relative viability ([13]; first compound 0.08 µM) was 0.444 and the relative viability ([13]; first compound 0.253 µM) was 0.334. It also gave a relative viability ([13]; first compound 0.8 µM) of 0.352, a relative viability ([13]; first compound 2.53 µM) of 0.261 and a relative viability ([14]; first compound 0.08 µM) of 0.268. For the same compound, the relative viability ([14]; first compound 0.253 µM) was 0.297, the relative viability ([14]; first compound 0.8 µM) was 0.299 and the relative viability ([14]; first compound 2.53 µM) was 0.234. It also gave a relative viability ([15]; first compound 0.08 µM) of 0.407, a relative viability ([15]; first compound 0.253 µM) of 0.394 and a relative viability ([15]; first compound 0.8 µM) of 0.409. The relative viability ([15]; first compound 2.53 µM) was 0.388, the relative viability ([16]; first compound 0.08 µM) was 0.508 and the relative viability ([16]; first compound 0.253 µM) was 0.438. The relative viability ([16]; first compound 0.8 µM) was 0.485, the relative viability ([16]; first compound 2.53 µM) was 0.45 and the relative viability ([17]; first compound 0.08 µM) was 0.439. It also gave a relative viability ([17]; first compound 0.253 µM) of 0.341, a relative viability ([17]; first compound 0.8 µM) of 0.458 and a relative viability ([17]; first compound 2.53 µM) of 0.414. It also gave a relative viability ([18]; first compound 0.08 µM) of 0.502, a relative viability ([18]; first compound 0.253 µM) of 0.397 and a relative viability ([18]; first compound 0.8 µM) of 0.462. It also gave a relative viability ([18]; first compound 2.53 µM) of 0.478, a relative viability ([19]; first compound 0.08 µM) of 0.403 and a relative viability ([19]; first compound 0.253 µM) of 0.412. The relative viability ([19]; first compound 0.8 µM) was 0.435, the relative viability ([19]; first compound 2.53 µM) was 0.429 and the relative viability ([20]; first compound 0.08 µM) was 0.709. For the same compound, the relative viability ([20]; first compound 0.253 µM) was 0.68, the relative viability ([20]; first compound 0.8 µM) was 0.721 and the relative viability ([20]; first compound 2.53 µM) was 0.705. The relative viability ([21]; first compound 0.08 µM) was 0.347, the relative viability ([21]; first compound 0.253 µM) was 0.337 and the relative viability ([21]; first compound 0.8 µM) was 0.34. It also gave a relative viability ([21]; first compound 2.53 µM) of 0.267, a relative viability ([22]; first compound 0.08 µM) of 0.479 and a relative viability ([22]; first compound 0.253 µM) of 0.382. The relative viability ([22]; first compound 0.8 µM) was 0.466, the relative viability ([22]; first compound 2.53 µM) was 0.527 and the relative viability ([23]; first compound 0.253 µM) was 0.539. It also gave a relative viability ([23]; first compound 0.8 µM) of 0.56, a relative viability ([23]; first compound 2.53 µM) of 0.285 and a relative viability ([24]; first compound 0.08 µM) of 0.383. The relative viability ([24]; first compound 0.253 µM) was 0.343, the relative viability ([24]; first compound 0.8 µM) was 0.34 and the relative viability ([24]; first compound 2.53 µM) was 0.227.
